Biological target: T1, recombinant full-length human GSK3β (Homo sapiens, UniProt P49841)
T1 construct: recombinant full-length human GSK3β (Upstate); purchased Upstate
Experiment: cell-free GSK3 kinase assay (KinaseGlo luciferase)
Assay type: biochemical
Details: 5 μM ATP, 1 hour at 30 degrees Celsius
Experimental: Proceed to KinaseGlo luciferase reaction.
Following the completion of the kinase reaction an equal volume of KinaseGlo luciferase reagent (Promega) is added and the luminescence read using a luminescence plate reader within 5-10 minutes.

T1 sequence (P49841 whole entry): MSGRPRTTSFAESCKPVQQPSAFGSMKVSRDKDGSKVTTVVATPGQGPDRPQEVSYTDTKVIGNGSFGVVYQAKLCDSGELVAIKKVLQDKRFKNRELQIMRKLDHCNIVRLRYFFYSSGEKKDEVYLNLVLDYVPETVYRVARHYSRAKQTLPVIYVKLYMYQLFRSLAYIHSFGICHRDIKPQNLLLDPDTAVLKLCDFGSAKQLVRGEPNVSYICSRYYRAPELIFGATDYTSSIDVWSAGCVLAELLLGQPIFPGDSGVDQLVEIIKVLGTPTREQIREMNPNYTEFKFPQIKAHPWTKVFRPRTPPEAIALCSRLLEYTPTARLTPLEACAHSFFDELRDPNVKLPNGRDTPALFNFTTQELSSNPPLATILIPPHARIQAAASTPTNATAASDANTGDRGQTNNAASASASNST

Compound | IC50 (Table 2) | IC50 (Table 1)
N#Cc1cn2c3c(c(NCCCc4ccccn4)c(F)c(N)c3c1=O)OCC21CC1 | < 15 nM | –
N#Cc1cn2c3c(c(NCCCc4cccnc4)c(F)c(N)c3c1=O)OCC21CC1 | < 15 nM | –
N#Cc1cn2c3c(c(NCCCn4cccn4)c(F)c(N)c3c1=O)OCC21CC1 | < 15 nM | –
N#Cc1cn2c3c(c(NCCCc4ccncc4)c(F)c(N)c3c1=O)OCC21CCCC1 | < 15 nM | –
Nc1c(F)c(NCCNc2ccccn2)c2c3c1c(=O)c(C(=O)O)cn3C1(CCCC1)CO2 [Compound 1] | – | < 15 nM
Cc1cc(NCCNc2c(F)c(N)c3c(=O)c(C(=O)O)cn4c3c2OCC42CCCC2)nc2ccccc12 [Compound 2] | – | 61 to 150 nM
Nc1c(F)c(NCCCn2cncn2)c2c3c1c(=O)c(C(=O)O)cn3C1(CCCC1)CO2 [Compound 3] | – | 61 to 150 nM
Nc1c(F)c(NCCCc2ccc(F)cc2)c2c3c1c(=O)c(C(=O)O)cn3C1(CCCC1)CO2 [Compound 4] | – | < 15 nM
Nc1c(F)c(NCCCN2CCCc3ccccc32)c2c3c1c(=O)c(C(=O)O)cn3C1(CCCC1)CO2 [Compound 5] | – | 16 to 60 nM
CC(CCc1ccc(Cl)cc1)Nc1c(F)c(N)c2c(=O)c(C(=O)O)cn3c2c1OCC31CCCC1 (stereo not shown) [Compound 6] | – | 16 to 60 nM
Nc1c(F)c(NCCCNC(=O)c2ccco2)c2c3c1c(=O)c(C(=O)O)cn3C1(CCCC1)CO2 [Compound 7] | – | 16 to 60 nM
Nc1c(F)c(NCCCNC(=O)C23CC4CC(CC(C4)C2)C3)c2c3c1c(=O)c(C(=O)O)cn3C1(CCCC1)CO2 [Compound 8] | – | 16 to 60 nM
Nc1c(F)c(NCCOc2ccc(F)cc2)c2c3c1c(=O)c(C(=O)O)cn3C1(CCCC1)CO2 [Compound 9] | – | 16 to 60 nM
Cc1cc(OCCNc2c(F)c(N)c3c(=O)c(C(=O)O)cn4c3c2OCC42CCCC2)ccc1Cl [Compound 10] | – | 16 to 60 nM
Nc1c(F)c(NCCSc2c[nH]c3ccccc23)c2c3c1c(=O)c(C(=O)O)cn3C1(CCCC1)CO2 [Compound 11] | – | < 15 nM
Nc1c(F)c(NCCOc2ccc(Cl)cc2)c2c3c1c(=O)c(C(=O)O)cn3C1(CCCC1)CO2 [Compound 12] | – | 61 to 150 nM
Nc1c(F)c(NCCOc2ccc(Cl)cc2Cl)c2c3c1c(=O)c(C(=O)O)cn3C1(CCCC1)CO2 [Compound 13] | – | 61 to 150 nM
COc1ccc(OCCNc2c(F)c(N)c3c(=O)c(C(=O)O)cn4c3c2OCC42CCCC2)cc1OC [Compound 14] | – | < 15 nM
Cc1ccc2nc(C)cc(NCCNc3c(F)c(N)c4c(=O)c(C(=O)O)cn5c4c3OCC53CCCC3)c2c1 [Compound 15] | – | < 15 nM

Compound | IC50 (Table 2) | IC50 (Table 1)
Cc1nnc(SCCNc2c(F)c(N)c3c(=O)c(C(=O)O)cn4c3c2OCC42CCCC2)[nH]1 [Compound 16] | – | < 15 nM
Nc1c(F)c(NCCOc2ccc(C3CCCCC3)cc2)c2c3c1c(=O)c(C(=O)O)cn3C1(CCCC1)CO2 [Compound 17] | – | > 150 nM
Cn1ccnc1SCCNc1c(F)c(N)c2c(=O)c(C(=O)O)cn3c2c1OCC31CCCC1 [Compound 18] | – | < 15 nM
Nc1c(F)c(NCCS(=O)(=O)N2CCCCC2)c2c3c1c(=O)c(C(=O)O)cn3C1(CCCC1)CO2 [Compound 19] | – | 61 to 150 nM
Nc1c(F)c(NCCNC2=NS(=O)(=O)c3ccccc32)c2c3c1c(=O)c(C(=O)O)cn3C1(CCCC1)CO2 [Compound 20] | – | < 15 nM
Nc1c(F)c(NCCSc2nnnn2-c2ccccc2)c2c3c1c(=O)c(C(=O)O)cn3C1(CCCC1)CO2 [Compound 21] | – | < 15 nM
Nc1c(F)c(NCC(O)Cn2cnc3ccccc32)c2c3c1c(=O)c(C(=O)O)cn3C1(CCCC1)CO2 (stereo not shown) [Compound 22] | – | 61 to 150 nM
CCN(CCCNc1c(F)c(N)c2c(=O)c(C(=O)O)cn3c2c1OCC31CCCC1)c1ccccc1 [Compound 23] | – | < 15 nM
Nc1c(F)c(NCCN2CCc3ccccc32)c2c3c1c(=O)c(C(=O)O)cn3C1(CCCC1)CO2 [Compound 24] | – | 61 to 150 nM
Cc1ccc(OCCNc2c(F)c(N)c3c(=O)c(C(=O)O)cn4c3c2OCC42CCCC2)cc1 [Compound 25] | – | 16 to 60 nM
Nc1c(F)c(NCCCc2ccccn2)c2c3c1c(=O)c(C(=O)O)cn3C1(CCCC1)CO2 [Compound 26] | – | < 15 nM
Nc1c(F)c(NCCCc2ccccc2Cl)c2c3c1c(=O)c(C(=O)O)cn3C1(CCCC1)CO2 [Compound 27] | – | < 15 nM
COc1ccc(CCCNc2c(F)c(N)c3c(=O)c(C(=O)O)cn4c3c2OCC42CCCC2)cc1 [Compound 28] | – | < 15 nM
CCOc1ccc(CCCNc2c(F)c(N)c3c(=O)c(C(=O)O)cn4c3c2OCC42CCCC2)cc1OCC [Compound 29] | – | 16 to 60 nM
Cc1cc(NCCNc2c(F)c(N)c3c(=O)c(C(=O)O)cn4c3c2OCC42CCCC2)c2ccccc2n1 [Compound 30] | – | < 15 nM
CC(CCc1ccccc1Cl)Nc1c(F)c(N)c2c(=O)c(C(=O)O)cn3c2c1OCC31CCCC1 (stereo not shown) [Compound 31] | – | 16 to 60 nM
Cc1nn(C)c(C)c1CCCNc1c(F)c(N)c2c(=O)c(C(=O)O)cn3c2c1OCC31CCCC1 [Compound 32] | – | < 15 nM
COc1ccc(OCCNc2c(F)c(N)c3c(=O)c(C(=O)O)cn4c3c2OCC42CCCC2)cc1 [Compound 34] | – | 61 to 150 nM

— patent US8476261B2, “Spirocyclic aminoquinolones as GSK-3 inhibitors” (Kyorin Pharmaceutical Co., Ltd., priority 2007, dated 2013)
